# According to PubChem BioAssay AID1645871:
# Conditions: pampa; pH 5.0; 30.0 min; 50.0 µM
row,SMILES,Papp [×10⁻⁶ cm/s]
1,O=C(NC1CCCc2c1[nH]c1c(Cl)cccc21)c1ccc2c(c1)OCO2 (stereo unspecified),190
2,O=c1[nH]c(N2CCOCC2)nc2c1CCN(Cc1cc(Cl)ccc1F)CC2,46.3
3,CCc1ccc(C2N=C(N)Nc3nc4ccccc4n32)cc1 (stereo unspecified),1.54
4,COc1cc(C(=O)NC2CCCc3c2[nH]c2c(Cl)cccc32)cc(OC)c1OC (stereo unspecified),384
5,O=C(Nc1cccc(F)c1)c1cc(-c2ccc[nH]2)n[nH]1,75.6
6,COc1cc2ncnc(Oc3cccc(NC(=O)Nc4cc(C(C)(C)C(F)(F)F)on4)c3)c2cc1OC,137
7,Cc1ccc(C(=O)NC2CCN(c3cnn(CC4CC4)c(=O)c3)CC2)cc1C,498
8,CC(C(O)c1ccc(O)cc1)N1CCC(Cc2ccccc2)CC1 (stereo unspecified),40.6
9,O=C(NCc1ccc(S(=O)(=O)c2cccc(C(F)(F)F)c2)cc1)c1cnc2[nH]ncc2c1,362
10,CN1CCN(CCCN2c3ccccc3Sc3ccc(S(=O)(=O)N(C)C)cc32)CC1,730
11,O=C(Nc1ccc(OC(F)(F)Cl)cc1)c1cnc(N2CC[C@@H](O)C2)c(-c2ccn[nH]2)c1,16.8
12,COCCNc1ncc(-c2cccc(O)c2)c2c1OCC2,77
13,c1ccc(Nc2cc3c(cn2)CN(Cc2cccs2)CCN3)cc1,106
14,Cn1cnc(-c2nccc3c(=O)[nH]c(OCCCC(F)(F)F)nc23)c1,78.7
15,Nc1c(-c2ccccc2)cc[nH]c1=O,76.8
16,CNc1sc(-c2cccc3ccccc23)nc1C#N,268
17,O=C(O)C1CCN(c2ncc(-c3ccc4c(c3)OCCCO4)s2)CC1,> 1000
18,CS(=O)(=O)c1ccc(-c2cnc(NCc3ccco3)n3cnnc23)cc1,13.6
19,Cc1ccc(S(=O)(=O)N2CCN(C(=O)c3cc4c(s3)CCC4)CC2)cc1,> 1000

# More lines, now with the values ahead:
row,Papp [×10⁻⁶ cm/s],SMILES
1,564,COc1ccc(-n2nc(C3CCCN([S+](=O)([O-])c4cccc(C(F)(F)F)c4)C3)[nH]c2=O)cc1 (stereo unspecified)
2,773,COc1ccc(-n2nc(C)c([C@@H]3C=C[C@@H](NCc4cccc(Cl)c4)C3)c2C)cc1
3,878,CSc1nn(Cc2cccc(C)c2)c(N)c1S(=O)(=O)c1ccccc1
4,537,CCC(=O)N1CCN(c2ccc(-n3c(=O)ccc4cnc5ccc(-c6cnc7ccccc7c6)cc5c43)cc2C(F)(F)F)CC1
5,505,O=C(Nc1ccccc1F)c1nc(S(=O)(=O)Cc2ccccc2F)ncc1Cl
6,800,CC(C)Oc1ccc(C(=O)Nc2ccc3c(c2)CCCN3C(=O)c2cccs2)cc1
7,402,COc1ccccc1C(=O)Nc1nnc(SCc2cc(=O)c3ccccc3[nH]2)s1
8,73,COc1ccccc1N1CCN(CCN(C(=O)c2ccc(F)cc2)c2ccccn2)CC1
9,626,Cc1ccc(CN2C(=O)C(O)(CC(=O)c3ccc(C)cc3)c3ccccc32)cc1 (stereo unspecified)
10,2,CCOc1ccc(-c2nnc(SCC(=O)NCc3ccccc3Cl)o2)cc1
11,653,CCc1ccc2ncc(C(=O)c3ccc(C)c(C)c3)c(N3CCC(C(N)=O)CC3)c2c1
12,> 1000,O=C(NC1CCCN(c2cc(-c3ccc(F)cc3)[nH]n2)C1)c1ccc2ncccc2c1 (stereo unspecified)
13,341,COc1ccc(-n2nc(C3CCCN(C(=O)c4ccccc4F)C3)[nH]c2=O)cc1 (stereo unspecified)
14,> 1000,COc1ccc(-n2c(C)c(C(C)=O)c3cc(OC(=O)COc4ccccc4)ccc32)cc1
15,587,COc1ccc(-c2cc(-c3ccccc3)nc(SCC(=O)Nc3ccccc3C)c2C#N)cc1
16,828,CC1CCN(S(=O)(=O)c2ccc3c(ccc(=O)n3CC(=O)NCc3ccc(Cl)cc3)c2)CC1
17,656,CCOc1ccccc1C(=O)Nc1ncccc1C(=O)Nc1cccc(S(=O)(=O)C(F)(F)F)c1
18,316,CCOC(=O)c1ccc(N2C(=O)c3n[nH]c(-c4cccs4)c3C2c2ccc(Cl)cc2Cl)cc1 (stereo unspecified)
19,> 1000,Fc1ccccc1-c1nc(NCc2ccc(-c3cccnc3)cc2)c2ccccc2n1
20,159,COc1ccc(CNC(=O)CCCn2nc(C)c3c(C)n(-c4ccc(C)cc4)nc3c2=O)cc1OC
21,> 1000,Cc1ccc(S(=O)(=O)Nc2ccccc2C(=O)Nc2nc(-c3ccccc3)cs2)cc1
22,74.2,O=C(O)c1ccc(Nc2nc(-c3cc4ccccc4oc3=O)cs2)cc1O
